Source: paper PMC9510668 (Frontiers in Pharmacology, 2022)
pIC50, pKi: −log10 of the molar value. Read-outs that look alike come from different tables or passages of the source.

Legend:
[1] = Physicochemical parameters (literature / model input); details: mean value of literature values, used in the model
BCRP1 [2] = assay: BCRP1 efflux transport; assay type: in vitro ADME; details: calculated from literature data, PAZ 5 μM, 60-120 min; ref Minocha et al., 2012
[3] = cited from earlier work
Caco-2 cell = tested on: Caco-2 cell; set-up: method as in Food and Drug Administration, 2009; details: ref Food and Drug Administration, 2009; cited from earlier work
[4] = ref Verheijen et al., 2017, cited from earlier work
BCRP1 [5] = tested on: BCRP1; set-up: method as in Minocha et al., 2012; Boudou-Rouquette et al., 2016; details: in vitro; ref Minocha et al., 2012; Boudou-Rouquette et al., 2016; cited from earlier work
UGT1A1 = details: ref Xu et al., 2010; cited from earlier work
OATP1B1 = details: ref Xu et al., 2010; cited from earlier work
MATE1 = tested on: MATE1; set-up: method as in Sauzay et al., 2016; details: ref Sauzay et al., 2016; cited from earlier work
MATE2-K = tested on: MATE2-K; set-up: method as in Sauzay et al., 2016; details: ref Sauzay et al., 2016; cited from earlier work
[6] = ref Food and Drug Administration, 2009, cited from earlier work
[7] = cited from earlier work; remark: listed apart in the source
[8] = ref Fink, 2020; cited from earlier work
CYP2B6 = details: ref Food and Drug Administration, 2009; Yamada et al., 2020; cited from earlier work
CYP3A4 = details: 2020, cited from earlier work

Cc1ccc(Nc2nccc(N(C)c3ccc4c(C)n(C)nc4c3)n2)cc1S(N)(=O)=O [PAZ, pazopanib]
LogP [1]: 3.49
BCRP1 Vmax (BCRP1 [2]): 2.5 pmol/min
Increase in AUC of PAZ ([3]; co-administration with ketoconazole, ref Van Leeuwen et al., 2014): approximately 66%
Decrease in AUC of PAZ ([3]; combined with carbamazepine, ref Van Leeuwen et al., 2014): 30%
Reduction of oral bioavailability ([3]; concomitant drugs that increase gastric pH, ref Budha et al., 2012): approximately 39%
Increase in AUC of PAZ ([3]; with lapatinib, ref Van Leeuwen et al., 2014): 59%
Papp, Caco-2 cell permeability (Caco-2 cell): 16.9 ✕10^−6 cm⋅s^−1
fup, fraction of free drug in plasma [4]: 0.011% ([Verheijen et al., 2017])
fup, fraction of free drug in plasma ([4]; value used in the model): 0.00011
Substrate for BCRP1 (BCRP1 [5]): moderate substrate
pIC50 (UGT1A1): 5.92
pIC50 (OATP1B1): 6.10
pKi (MATE1): 5.77
pKi (MATE2-K): 5.48
Incidence of high blood pressure ([6]; Ctrough above 32 μg/ml): ~80%
Probability of ALT elevation ([6]; Ctrough above approximately 56 μg/ml): ~20%
Cmax threshold of clinical exposure-toxicity [6]: less than 56 μg/ml
Ctrough needed for sufficient clinical response [6]: above 15 μg/ml
Ctrough threshold of clinical exposure-toxicity [6]: < 32000 ng/mL
Mean oral bioavailability ([7]; oral 800 mg dose in humans, ref Deng et al., 2013): approximately 21.4%
Elimination via feces, administered radioactivity dose ([7]; ref Deng et al., 2013): approximately 82.2%
Elimination via feces, unchanged drug ([7]; ref Deng et al., 2013): 67%
Renal elimination, of the administered dose ([7]; ref Deng et al., 2013): approximately 2.6%
Higher bioavailability of 400 mg dose than 800 mg dose ([7]; ref Food and Drug Administration, 2009): 40%
Permeability [8]: highly permeable
Inducer of CYP2B6 (CYP2B6): moderate inducer
Inducer of CYP3A4 (CYP3A4; ref Food and Drug Administration, 2009, Yamada et al.): moderate inducer
Emax CYP3A4, maximum inductive effect (CYP3A4; ref Yamada et al.): 2.43 µM
